Source: patent publication US7947695B2, “5-membered annelated heterocyclic pyrimidines as kinase inhibitors” (Janssen Pharmaceutica NV, priority 2005, dated 2011)

What was measured:
Assay type in all cases: biochemical
CDK4/cyclinD1 = CDK4/cyclinD1 (Homo sapiens, UniProt P11802); assay: In vitro filtration assay for CDK4 inhibitory activity (pRb phosphorylation, [33P]-ATP); conditions: GST-pRb substrate, 1 μM unlabeled ATP, 25° C. 45 minutes, read-out: cdk4 filter (pIC50) (converted)
Protocol: (§1) Compounds of the present invention were tested in an in vitro filtration assay assessing CDK4 activity by means of its pRb-phosphorylation activity using [^33P]-ATP as phosphor donor. The radioactive phosphorylated pRb is then captured on filtermats and the incorporated [^33P] quantitated using a phosphorage storage screen.
The CDK4 kinase reaction is performed at 25° C. for 45 minutes in a 96-well microtiterplate. The 25 μl reaction volume contains 50 mM Hepes pH 7.5, 10 mM NaF, 10 mM MgCl2, 1 mM Na3VO4, 1 μM unlabeled ATP, 1 mM DTT, 0.5 μCi AT^33P, 0.76 μg/well GST-pRb, 50 ng CDK4/cyclinD1/well and 0.2% compound in 100% DMSO.
(§2) The reaction is stopped by adding 5 μl of a 3% phosphoric acid solution. 10 μl of the reaction mixture is then spotted onto a Filtermat P30 filter (Wallac) and washed 3 times for 5 min. in 75 mM phosphoric acid and 1 time for 5 min. in methanol prior to drying and quantification on the Typhoon (Amersham) using a phosphorage storage screen.
(§3) For each experiment, controls (containing enzyme (complex) and DMSO without compound), a blank incubation (containing DMSO but no enzyme (complex) or compound) and samples (containing enzyme (complex) and compound dissolved in DMSO) were run in parallel. All compounds tested were dissolved and eventually further diluted in DMSO. […] In each test, the blank value was subtracted from both the control and the sample values. The control sample represented maximal enzyme activity. For each sample, the amount of cpm was expressed as a percentage of the mean cpm value of the controls. When appropriate, IC50-values (concentration of the drug, needed to reduce the enzyme activity to 50% of the control) were computed using linear interpolation between the experimental points just above and below the 50% level. Herein the effects of test compounds are expressed as pIC50 (the negative log value of the IC50-value).

AURORA B = AURORA B (Homo sapiens, UniProt Q96GD4); assay: In vitro filtration assay for AURORA B inhibitory activity; conditions: peptide (C(LRRWSLG)×4), 1 μM unlabeled ATP, 25° C. 40 minutes, read-out: Aurora B see C.3 (pIC50) (converted)
Protocol: as §1, with “AURORA B” for “CDK4”, “substrate-phosphorylation” for “pRb-phosphorylation”, “substrate” for “pRb”
The Aurora-B kinase reaction is performed at 25° C. for 40 minutes in a 96-well microtiterplate. The 25 μl reaction volume contains 60 mM Hepes pH 7.5, 3 mM MgCl2, 3 mM MnCl2, 3 μM Na3VO4, 50 μg/ml PEG20000, 1 μM unlabeled ATP, 1 mM DTT, 0.2 μCi AT^33P, 0.25 μg/well peptide (C(LRRWSLG)×4),100 ng Aurora-B/well and 0.2% compound in 100% DMSO. The reaction is stopped by adding 5 μl of a 3% phosphoric acid solution. 10 μl of the reaction mixture is then spotted onto a Filtermat P30 filter (Wallac) and washed 3 times for 5 min. in 75 mM phosphoric acid and 1 time for 5 min. in methanol prior to drying and quantification on the Typhoon (Amersham) using a phosphorage storage screen.
as §3

AURORA A = biological target: T1, AURORA A (Homo sapiens, UniProt O14965); assay: In vitro filtration assay for AURORA A inhibitory activity; conditions: Kemptide substrate, 1 μM unlabeled ATP, 25° C. 40 minutes, read-out: Aurora A see C.2 (pIC50) (converted)
T1 sequence (O14965 1-403): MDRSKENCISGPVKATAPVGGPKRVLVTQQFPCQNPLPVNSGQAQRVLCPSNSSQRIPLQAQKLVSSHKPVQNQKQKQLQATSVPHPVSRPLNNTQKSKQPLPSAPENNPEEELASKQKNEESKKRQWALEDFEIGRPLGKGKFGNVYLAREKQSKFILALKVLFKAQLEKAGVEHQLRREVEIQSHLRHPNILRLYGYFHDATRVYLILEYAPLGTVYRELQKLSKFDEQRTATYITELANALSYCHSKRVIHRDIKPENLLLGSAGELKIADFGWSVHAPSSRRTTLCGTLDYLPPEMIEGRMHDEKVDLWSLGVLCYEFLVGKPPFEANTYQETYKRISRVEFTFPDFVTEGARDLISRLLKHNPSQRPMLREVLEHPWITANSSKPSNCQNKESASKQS
Protocol: as §1, with “AURORA A” for “CDK4”, “substrate-phosphorylation” for “pRb-phosphorylation”, “substrate” for “pRb”
The Aurora-A kinase reaction is performed at 25° C. for 40 minutes in a 96-well microtiterplate. The 25 μl reaction volume contains 12 mM MOPS pH 7, 0.4 mM EDTA, 0.002% Brij35, 1% glycerol, 0.02% beta-mercapto-ethanol, 0.2 mg/ml BSA, 1 μM unlabeled ATP, […] [^33P]-ATP, 200 μM Kemptide, 3 ng Aurora A/well and 0.2% compound in 100% DMSO.
as §2, §3

Chain of AURORA B (Q96GD4 whole entry): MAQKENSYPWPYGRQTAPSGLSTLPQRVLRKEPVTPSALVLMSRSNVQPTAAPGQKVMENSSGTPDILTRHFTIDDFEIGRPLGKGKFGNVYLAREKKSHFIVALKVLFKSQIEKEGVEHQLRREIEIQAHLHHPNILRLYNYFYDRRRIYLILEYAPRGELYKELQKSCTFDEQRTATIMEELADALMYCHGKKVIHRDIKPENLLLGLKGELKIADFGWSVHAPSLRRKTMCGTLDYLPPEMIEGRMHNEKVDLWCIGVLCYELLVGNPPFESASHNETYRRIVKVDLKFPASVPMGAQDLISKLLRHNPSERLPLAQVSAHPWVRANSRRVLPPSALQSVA
Chain of CDK4/cyclinD1 (P11802 whole entry): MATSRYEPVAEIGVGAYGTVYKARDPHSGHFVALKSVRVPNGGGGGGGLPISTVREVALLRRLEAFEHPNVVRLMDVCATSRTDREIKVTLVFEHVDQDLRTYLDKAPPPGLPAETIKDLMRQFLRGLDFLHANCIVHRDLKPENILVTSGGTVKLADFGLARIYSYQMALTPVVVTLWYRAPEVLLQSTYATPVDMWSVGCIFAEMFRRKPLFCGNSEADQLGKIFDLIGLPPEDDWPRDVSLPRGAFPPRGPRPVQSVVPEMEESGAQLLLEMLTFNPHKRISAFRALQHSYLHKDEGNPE
Chain of CDK4/cyclinD1 (P24385 whole entry partner): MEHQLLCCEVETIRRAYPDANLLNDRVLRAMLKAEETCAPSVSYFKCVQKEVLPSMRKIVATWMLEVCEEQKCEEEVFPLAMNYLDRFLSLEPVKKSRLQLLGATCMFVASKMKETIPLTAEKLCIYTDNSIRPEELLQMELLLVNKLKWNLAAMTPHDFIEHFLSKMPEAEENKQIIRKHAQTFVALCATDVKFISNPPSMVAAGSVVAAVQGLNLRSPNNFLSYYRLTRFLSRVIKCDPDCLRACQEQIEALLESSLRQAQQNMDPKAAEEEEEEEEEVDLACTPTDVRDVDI

| SMILES | IC50 (CDK4/cyclinD1) [nM] | IC50 (AURORA B) [nM] | IC50 (AURORA A) [nM] |
| --- | --- | --- | --- |
| CN1CCN(c2ccc(Nc3ncc4cnn([C@H]5C[C@@H]6CC[C@H]5C6)c4n3)cc2)CC1 (single isomer, unassigned) [Co. No. 23] | 5.01 | 158 | 100 |
| CN1CCN(Cc2ccc(Nc3ncc4cnn(C5CCCCC5)c4n3)cc2)CC1 [Co. No. 2] | 3.16 | > 10000 | 501 |
| CN1CCN(C(=O)c2ccc(Nc3ncc4cnn(C5CCCCC5)c4n3)cc2)CC1 [Co. No. 3] | 6.31 | > 10000 | 501 |
| c1cc(Nc2ncc3cnn(C4CCCCC4)c3n2)ccc1CNCCN1CCOCC1 [Co. No. 4] | 2.51 | > 1580 | 1000 |
| OCCN1CCN(c2ccc(Nc3ncc4cnn(C5CCCCC5)c4n3)cc2)CC1 [Co. No. 15] | 10 | > 10000 | 631 |
| OCCN1CCN(Cc2ccc(Nc3ncc4cnn(C5CCCCC5)c4n3)cc2)CC1 [Co. No. 37] | 7.94 | 398 | 200 |
| CN1CCC(NCc2ccc(Nc3ncc4cnn(C5CCCCC5)c4n3)cc2)CC1 [Co. No. 60] | 7.94 | > 10000 | 1580 |
| CN1CCN(c2ccc(Nc3ncc4cnn([C@H]5C[C@@H]6CC[C@H]5C6)c4n3)cc2)CC1 [compound 16] | 31.6 | > 10000 | 398 |
| c1cc(N2CCOCC2)ncc1Nc1ncc2cnn(C3CCCCC3)c2n1 [compound 17] | 20 | > 10000 | 794 |
| CN1CCN(c2ccc(Nc3ncc4cnn(C5CCCCC5)c4n3)cc2Cl)CC1 [compound 18] | 251 | > 10000 | 158 |
| CC(=O)N1CCN(c2ccc(Nc3ncc4cnn(C5CCCCC5)c4n3)cc2)CC1 [compound 19] | 5010 | > 10000 | > 10000 |
| OC1CCN(c2ccc(Nc3ncc4cnn(C5CCCCC5)c4n3)cc2)CC1 [compound 20] | 12.6 | > 10000 | 501 |
| NS(=O)(=O)N1CCN(c2ccc(Nc3ncc4cnn(C5CCCCC5)c4n3)cc2)CC1 [compound 21] | 39.8 | 3160 | 200 |
| c1ccc(N2CCN(c3ccc(Nc4ncc5cnn(C6CCCCC6)c5n4)cc3)CC2)nc1 [compound 22] | 501 | > 10000 | 39.8 |
| CC(C)(O)CN1CCN(c2ccc(Nc3ncc4cnn(C5CCCCC5)c4n3)cc2)CC1 [compound 24] | 126 | 3160 | 251 |
| CC(C)(C)OC(=O)N1CCN(c2ccc(Nc3ncc4cnn(C5CCCCC5)c4n3)cc2)CC1 [compound 25] | 1000 | 3160 | 100 |
| c1cc(N2CCNCC2)ccc1Nc1ncc2cnn(C3CCCCC3)c2n1 [compound 26] | 15.8 | 1260 | 251 |
| CN1CCN(c2ccc(Nc3ncc4cnn(C5CCOCC5)c4n3)cc2)CC1 [compound 27] | 200 | > 10000 | 501 |
| c1cc(Nc2ncc3cnn(C4CCCCC4)c3n2)ncc1N1CCOCC1 [compound 28] | 1000 | > 10000 | 2510 |
| CC(C)(C)OC(=O)N1CCN(c2ccc(Nc3ncc4cnn(C5CCCCC5)c4n3)nc2)CC1 [compound 29] | 6310 | > 10000 | > 10000 |
| c1cc(Nc2ncc3cnn(C4CCCCC4)c3n2)ncc1N1CCNCC1 [compound 30] | 50.1 | > 10000 | > 10000 |
| CC(C)(O)C(=O)N1CCN(c2ccc(Nc3ncc4cnn(C5CCCCC5)c4n3)cc2)CC1 [compound 31] | 31.6 | – | – |
| c1cc(Nc2ncc3cnn(C4CCCCC4)c3n2)ccc1CN1CCOCC1 [compound 33] | 631 | 7940 | 15.8 |
| NS(=O)(=O)N1CCN(Cc2ccc(Nc3ncc4cnn(C5CCCCC5)c4n3)cc2)CC1 [compound 34] | 63.1 | > 10000 | 158 |
| c1ccc(N2CCN(Cc3ccc(Nc4ncc5cnn(C6CCCCC6)c5n4)cc3)CC2)nc1 [compound 35] | 100 | > 10000 | 251 |

The remaining lines, values ahead:

| IC50 (CDK4/cyclinD1) [nM] | IC50 (AURORA B) [nM] | IC50 (AURORA A) [nM] | SMILES |
| --- | --- | --- | --- |
| 100 | > 10000 | 251 | CN1CCN(Cc2ccc(Nc3ncc4cnn([C@H]5C[C@@H]6CC[C@H]5C6)c4n3)cc2)CC1 [compound 36] |
| 12.6 | 2000 | 1000 | CC(C)(O)CN1CCN(Cc2ccc(Nc3ncc4cnn(C5CCCCC5)c4n3)cc2)CC1 [compound 38] |
| 1580 | > 10000 | 6310 | CN1CCN(Cc2ccc(N(C(=O)OC(C)(C)C)c3ncc4cnn([C@H]5C[C@@H]6CC[C@H]5C6)c4n3)cc2)CC1 [compound 39] |
| 63.1 | 398 | 316 | CN1CCN(Cc2ccc(Nc3ncc4cnn([C@H]5C[C@@H]6CC[C@H]5C6)c4n3)cc2)CC1 [compound 40] |
| 3980 | 3160 | 3160 | CC(C)(C)OC(=O)N(c1ccc(CN2CCOCC2)cc1)c1ncc2cnn([C@H]3C[C@@H]4CC[C@H]3C4)c2n1 [compound 41] |
| > 10000 | > 10000 | > 10000 | COCCCN1CCN(Cc2ccc(N(C(=O)OC(C)(C)C)c3ncc4cnn(C5CCCCC5)c4n3)cc2)CC1 [compound 42] |
| 63.1 | 3980 | 126 | COCCCN1CCN(Cc2ccc(Nc3ncc4cnn(C5CCCCC5)c4n3)cc2)CC1 [compound 43] |
| > 10000 | > 10000 | > 10000 | COCCCC(=O)N1CCN(Cc2ccc(N(C(=O)OC(C)(C)C)c3ncc4cnn(C5CCCCC5)c4n3)cc2)CC1 [compound 44] |
| 398 | – | 200 | COCCCC(=O)N1CCN(Cc2ccc(Nc3ncc4cnn(C5CCCCC5)c4n3)cc2)CC1 [compound 45] |
| 1260 | – | 1260 | CN1CCN(Cc2ccc(Nc3ncc4cnn(C5CCOCC5)c4n3)cc2)CC1 [compound 49] |
| 7940 | > 10000 | – | CC(C)(C)OC(=O)N(c1ccc(CNC2CCOCC2)cc1)c1ncc2cnn(C3CCCCC3)c2n1 [compound 66] |
| 316 | – | 1580 | COCCCN1CCN(c2ccc(Nc3ncc4c(n3)N(C3CCCCC3)C(=O)C4)cc2)CC1 [compound 90] |
| 398 | – | 316 | CC(C)(O)CN1CCC(NC(=O)c2ccc(Nc3ncc4cnn(C5CCCCC5)c4n3)cc2)CC1 [compound 98] |
